Consider two compounds from US11957652B2, “Compositions comprising citrulline and leucine and their use in the treatment of diabetes and metabolic syndrome” (SOCIÉTÉ DES PRODUITS NESTLÉ S.A., priority 2013, dated 2024).

The structures appear in SMILES notation.

For this experiment, the system named is rats fed a high fat diet. Description: Fasting glucose and insulin plasma levels in rats fed a high fat diet. As to conditions: rats on high fat diet, 1 g/kg daily of citrulline or leucine, or 1.0 g/kg leucine and 1.0 g/kg citrulline; for fasting plasma glucose levels (glycemia): compared to high fat diet alone (FIG. 1); for fasting insulin plasma levels (insulinemia): compared to high fat diet alone and to chow-fed healthy rats (FIG. 2). The experiment is classed as in vivo, rat. As to the method:
Compositions comprising citrulline, leucine, or […] were tested for their effect on fasting glucose levels and insulin plasma levels. Briefly, rats were split into six groups and fed either chow, a high fat diet, a high fat diet with 1 g/kg leucine daily, a high fat diet with 0.2 g/kg citrulline, a high fat diet with 1 g/kg citrulline daily or a high fat diet with a composition comprising 1.0 g/kg leucine and 1.0 g/kg citrulline.

As for `NC(=O)NCCC[C@H](N)C(=O)O` [citrulline], the “fasting plasma glucose levels (glycemia)” value is listed as “decrease” and the “fasting insulin plasma levels (insulinemia)” value was “decrease”.
For `CC(C)C[C@H](N)C(=O)O` [leucine], the “fasting plasma glucose levels (glycemia)” value is “decrease” and the “fasting insulin plasma levels (insulinemia)” value was “decrease”.
